Experimental data taken from PMC9019041, “Structural insights into the peptide selectivity and activation of human neuromedin U receptors” (Nature Communications, 2022).
Read-outs that look alike come from different tables or passages of the source. Where no end group is shown, it is not given here.

Legend:
Format in all cases: cell-based
NMUR2 WT = biological target: T1, NMUR2 WT (Homo sapiens, UniProt Q9GZQ4); assay: IP-One assay, NMUR2 WT
T1 construct: The full-length human NMUR1 and NMUR2 were modified; expressed in transfected cells; host or cells: AD293 cells
T1 sequence (Q9GZQ4 whole entry): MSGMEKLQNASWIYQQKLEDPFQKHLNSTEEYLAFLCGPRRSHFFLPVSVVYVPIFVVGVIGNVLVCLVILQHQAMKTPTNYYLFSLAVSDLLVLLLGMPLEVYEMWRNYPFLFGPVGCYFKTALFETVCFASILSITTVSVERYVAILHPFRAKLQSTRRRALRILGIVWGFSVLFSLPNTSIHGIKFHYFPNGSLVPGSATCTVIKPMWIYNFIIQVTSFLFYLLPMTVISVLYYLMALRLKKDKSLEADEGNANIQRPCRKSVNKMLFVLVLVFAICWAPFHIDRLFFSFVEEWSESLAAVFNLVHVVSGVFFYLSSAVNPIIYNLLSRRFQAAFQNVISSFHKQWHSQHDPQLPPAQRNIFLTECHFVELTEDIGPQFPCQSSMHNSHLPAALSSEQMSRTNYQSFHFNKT
Protocol: (§1) IP-One production was measured using the IP-One HTRF kit (Cisbio)[62]. Briefly, AD293 cells (Agilent) were grown to a density of 400,000–500,000 cells per mL and then infected with separate plasmids at a suitable concentration. The culture was collected by centrifugation 24 h after incubation at 37 °C in 5% CO2 with a Stimulation Buffer. The cell suspension was then dispensed in a white 384-well plate at a volume of 7 μl per well before adding 7 μl of ligands. The mixture was incubated for 1 h at 37 °C. IP-One-d2 and anti-IP-One Cryptate dissolved in Lysis Buffer (3 μl each) were subsequently added and incubated for 15-30 min at room temperature before measurement. Intracellular IP-One measurement was carried with the IP-One HTRF kit and EnVision multi-plate reader (PerkinElmer) according to the manufacturer’s instructions. Data were normalized to the baseline response of the ligand.
(§2) The significance was determined with two-side, one-way ANOVA with Tukey’s test, and ^*P < 0.05 was considered statistically significant.

NMUR2 A302G = biological target: T2, NMUR2 A302G (Homo sapiens, UniProt Q9GZQ4, A302G); assay: IP-One assay, NMUR2 A302G; details: mean ± S.E.M., three independent experiments (n=3), SEM, read-out: IP1 accumulation pEC50 ± S.E.M. (converted)
T2 construct: expressed in transfected cells; host or cells: AD293 cells
T2 sequence (Q9GZQ4 whole entry A302G): as the sequence (Q9GZQ4 whole entry) above, with A302G counted along it
Protocol: as §1, §2

NMUR2 F284A = biological target: T3, NMUR2 F284A (Homo sapiens, UniProt Q9GZQ4, F284A); assay: IP-One assay, NMUR2 F284A; details: mean ± S.E.M., three independent experiments (n=3), SEM, read-out: IP1 accumulation pEC50 ± S.E.M. (converted)
T3 construct: expressed in transfected cells; host or cells: AD293 cells
T3 sequence (Q9GZQ4 whole entry F284A): as the sequence (Q9GZQ4 whole entry) above, with F284A counted along it
Protocol: as §1, §2

NMUR2 S312A = biological target: T4, NMUR2 S312A (Homo sapiens, UniProt Q9GZQ4, S312A); assay: IP-One assay, NMUR2 S312A; details: mean ± S.E.M., three independent experiments (n=3), SEM, read-out: IP1 accumulation pEC50 ± S.E.M. (converted)
T4 construct: expressed in transfected cells; host or cells: AD293 cells
T4 sequence (Q9GZQ4 whole entry S312A): as the sequence (Q9GZQ4 whole entry) above, with S312A counted along it
Protocol: as §1, §2

NMUR1 WT = biological target: T5, NMUR1 WT (Homo sapiens, UniProt Q9HB89); assay: IP-One assay, NMUR1 WT
T5 construct: The full-length human NMUR1 and NMUR2 were modified; expressed in transfected cells; host or cells: AD293 cells
T5 sequence (Q9HB89 whole entry): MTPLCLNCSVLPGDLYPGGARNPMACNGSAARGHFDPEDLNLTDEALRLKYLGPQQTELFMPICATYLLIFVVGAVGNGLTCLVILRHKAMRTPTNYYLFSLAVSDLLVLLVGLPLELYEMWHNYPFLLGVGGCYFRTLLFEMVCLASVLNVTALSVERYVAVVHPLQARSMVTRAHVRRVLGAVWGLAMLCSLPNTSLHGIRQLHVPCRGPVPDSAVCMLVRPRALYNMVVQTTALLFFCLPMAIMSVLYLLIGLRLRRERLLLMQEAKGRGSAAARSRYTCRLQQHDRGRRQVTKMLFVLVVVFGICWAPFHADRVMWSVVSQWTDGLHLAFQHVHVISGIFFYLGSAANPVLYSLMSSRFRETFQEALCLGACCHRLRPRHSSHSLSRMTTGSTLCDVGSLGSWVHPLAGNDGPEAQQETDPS
Protocol: as §1, §2

NMUR2 R288A = biological target: T6, NMUR2 R288A (Homo sapiens, UniProt Q9GZQ4, R288A); assay: IP-One assay, NMUR2 R288A; details: mean ± S.E.M., three independent experiments (n=3), SEM, read-out: IP1 accumulation pEC50 ± S.E.M. (converted)
T6 construct: expressed in transfected cells; host or cells: AD293 cells
T6 sequence (Q9GZQ4 whole entry R288A): as the sequence (Q9GZQ4 whole entry) above, with R288A counted along it
Protocol: as §1, §2

NMUR1 L59A = biological target: T7, NMUR1 L59A (Homo sapiens, UniProt Q9HB89, L59A); assay: IP-One assay, NMUR1 L59A; details: mean ± S.E.M., three independent experiments (n=3), SEM, read-out: IP1 accumulation pEC50 ± S.E.M. (converted)
T7 construct: The full-length human NMUR1 and NMUR2 were modified; expressed in transfected cells; host or cells: AD293 cells
T7 sequence (Q9HB89 whole entry L59A): as the sequence (Q9HB89 whole entry) above, with L59A counted along it
Protocol: as §1, §2

NMUR1 H331A = biological target: T8, NMUR1 H331A (Homo sapiens, UniProt Q9HB89, H331A); assay: IP-One assay, NMUR1 H331A; details: mean ± S.E.M., three independent experiments (n=3), SEM, read-out: IP1 accumulation pEC50 ± S.E.M. (converted)
T8 construct: The full-length human NMUR1 and NMUR2 were modified; expressed in transfected cells; host or cells: AD293 cells
T8 sequence (Q9HB89 whole entry H331A): as the sequence (Q9HB89 whole entry) above, with H331A counted along it
Protocol: as §1, §2

NMUR1 Y346A = biological target: T9, NMUR1 Y346A (Homo sapiens, UniProt Q9HB89, Y346A); assay: IP-One assay, NMUR1 Y346A; details: mean ± S.E.M., three independent experiments (n=3), SEM, read-out: IP1 accumulation pEC50 ± S.E.M. (converted)
T9 construct: The full-length human NMUR1 and NMUR2 were modified; expressed in transfected cells; host or cells: AD293 cells
T9 sequence (Q9HB89 whole entry Y346A): as the sequence (Q9HB89 whole entry) above, with Y346A counted along it
Protocol: as §1, §2

NMUR1 F334A = biological target: T10, NMUR1 F334A (Homo sapiens, UniProt Q9HB89, F334A); assay: IP-One assay, NMUR1 F334A; details: mean ± S.E.M., three independent experiments (n=3), SEM, read-out: IP1 accumulation pEC50 ± S.E.M. (converted)
T10 construct: The full-length human NMUR1 and NMUR2 were modified; expressed in transfected cells; host or cells: AD293 cells
T10 sequence (Q9HB89 whole entry F334A): as the sequence (Q9HB89 whole entry) above, with F334A counted along it
Protocol: as §1, §2

NMUR2 T203A = biological target: T11, NMUR2 T203A (Homo sapiens, UniProt Q9GZQ4, T203A); assay: IP-One assay, NMUR2 T203A; details: mean ± S.E.M., three independent experiments (n=3), SEM, read-out: IP1 accumulation pEC50 ± S.E.M. (converted)
T11 construct: expressed in transfected cells; host or cells: AD293 cells
T11 sequence (Q9GZQ4 whole entry T203A): as the sequence (Q9GZQ4 whole entry) above, with T203A counted along it
Protocol: as §1, §2

NMUR2 E102A = biological target: T12, NMUR2 E102A (Homo sapiens, UniProt Q9GZQ4, E102A); assay: IP-One assay, NMUR2 E102A; details: mean ± S.E.M., three independent experiments (n=3), SEM, read-out: IP1 accumulation pEC50 ± S.E.M. (converted)
T12 construct: expressed in transfected cells; host or cells: AD293 cells
T12 sequence (Q9GZQ4 whole entry E102A): as the sequence (Q9GZQ4 whole entry) above, with E102A counted along it
Protocol: as §1, §2

NMUR2 Y52A = biological target: T13, NMUR2 Y52A (Homo sapiens, UniProt Q9GZQ4, Y52A); assay: IP-One assay, NMUR2 Y52A; details: mean ± S.E.M., three independent experiments (n=3), SEM, read-out: IP1 accumulation pEC50 ± S.E.M. (converted)
T13 construct: expressed in transfected cells; host or cells: AD293 cells
T13 sequence (Q9GZQ4 whole entry Y52A): as the sequence (Q9GZQ4 whole entry) above, with Y52A counted along it
Protocol: as §1, §2

NMUR2 F305A = biological target: T14, NMUR2 F305A (Homo sapiens, UniProt Q9GZQ4, F305A); assay: IP-One assay, NMUR2 F305A; details: mean ± S.E.M., three independent experiments (n=3), SEM, read-out: IP1 accumulation pEC50 ± S.E.M. (converted)
T14 construct: expressed in transfected cells; host or cells: AD293 cells
T14 sequence (Q9GZQ4 whole entry F305A): as the sequence (Q9GZQ4 whole entry) above, with F305A counted along it
Protocol: as §1, §2

NMUR2 D287A = biological target: T15, NMUR2 D287A (Homo sapiens, UniProt Q9GZQ4, D287A); assay: IP-One assay, NMUR2 D287A; details: mean ± S.E.M., three independent experiments (n=3), SEM, read-out: IP1 accumulation pEC50 ± S.E.M. (converted)
T15 construct: expressed in transfected cells; host or cells: AD293 cells
T15 sequence (Q9GZQ4 whole entry D287A): as the sequence (Q9GZQ4 whole entry) above, with D287A counted along it
Protocol: as §1, §2

NMUR1 D316A = biological target: T16, NMUR1 D316A (Homo sapiens, UniProt Q9HB89, D316A); assay: IP-One assay, NMUR1 D316A; details: mean ± S.E.M., three independent experiments (n=3), SEM, read-out: IP1 accumulation pEC50 ± S.E.M. (converted)
T16 construct: The full-length human NMUR1 and NMUR2 were modified; expressed in transfected cells; host or cells: AD293 cells
T16 sequence (Q9HB89 whole entry D316A): as the sequence (Q9HB89 whole entry) above, with D316A counted along it
Protocol: as §1, §2

NMUR1 M121A = biological target: T17, NMUR1 M121A (Homo sapiens, UniProt Q9HB89, M121A); assay: IP-One assay, NMUR1 M121A; details: mean ± S.E.M., three independent experiments (n=3), SEM, read-out: IP1 accumulation pEC50 ± S.E.M. (converted)
T17 construct: The full-length human NMUR1 and NMUR2 were modified; expressed in transfected cells; host or cells: AD293 cells
T17 sequence (Q9HB89 whole entry M121A): as the sequence (Q9HB89 whole entry) above, with M121A counted along it
Protocol: as §1, §2

NMUR2 F126A = biological target: T18, NMUR2 F126A (Homo sapiens, UniProt Q9GZQ4, F126A); assay: IP-One assay, NMUR2 F126A; details: mean ± S.E.M., three independent experiments (n=3), SEM, read-out: IP1 accumulation pEC50 ± S.E.M. (converted)
T18 construct: expressed in transfected cells; host or cells: AD293 cells
T18 sequence (Q9GZQ4 whole entry F126A): as the sequence (Q9GZQ4 whole entry) above, with F126A counted along it
Protocol: as §1, §2

NMUR2 K122A = biological target: T19, NMUR2 K122A (Homo sapiens, UniProt Q9GZQ4, K122A); assay: IP-One assay, NMUR2 K122A; details: mean ± S.E.M., three independent experiments (n=3), SEM, read-out: IP1 accumulation pEC50 ± S.E.M. (converted)
T19 construct: expressed in transfected cells; host or cells: AD293 cells
T19 sequence (Q9GZQ4 whole entry K122A): as the sequence (Q9GZQ4 whole entry) above, with K122A counted along it
Protocol: as §1, §2

NMUR2 N181A = biological target: T20, NMUR2 N181A (Homo sapiens, UniProt Q9GZQ4, N181A); assay: IP-One assay, NMUR2 N181A; details: mean ± S.E.M., three independent experiments (n=3), SEM, read-out: IP1 accumulation pEC50 ± S.E.M. (converted)
T20 construct: expressed in transfected cells; host or cells: AD293 cells
T20 sequence (Q9GZQ4 whole entry N181A): as the sequence (Q9GZQ4 whole entry) above, with N181A counted along it
Protocol: as §1, §2

NMUR2 Y110A = biological target: T21, NMUR2 Y110A (Homo sapiens, UniProt Q9GZQ4, Y110A); assay: IP-One assay, NMUR2 Y110A; details: mean ± S.E.M., three independent experiments (n=3), SEM, read-out: IP1 accumulation pEC50 ± S.E.M. (converted)
T21 construct: expressed in transfected cells; host or cells: AD293 cells
T21 sequence (Q9GZQ4 whole entry Y110A): as the sequence (Q9GZQ4 whole entry) above, with Y110A counted along it
Protocol: as §1, §2

NMUR1 F345A = biological target: T22, NMUR1 F345A (Homo sapiens, UniProt Q9HB89, F345A); assay: IP-One assay, NMUR1 F345A; details: mean ± S.E.M., three independent experiments (n=3), SEM, read-out: IP1 accumulation pEC50 ± S.E.M. (converted)
T22 construct: The full-length human NMUR1 and NMUR2 were modified; expressed in transfected cells; host or cells: AD293 cells
T22 sequence (Q9HB89 whole entry F345A): as the sequence (Q9HB89 whole entry) above, with F345A counted along it
Protocol: as §1, §2

NMUR1 E120A = biological target: T23, NMUR1 E120A (Homo sapiens, UniProt Q9HB89, E120A); assay: IP-One assay, NMUR1 E120A; details: mean ± S.E.M., three independent experiments (n=3), SEM, read-out: IP1 accumulation pEC50 ± S.E.M. (converted)
T23 construct: The full-length human NMUR1 and NMUR2 were modified; expressed in transfected cells; host or cells: AD293 cells
T23 sequence (Q9HB89 whole entry E120A): as the sequence (Q9HB89 whole entry) above, with E120A counted along it
Protocol: as §1, §2

FRVDEEFQSPFASQSRGYFLFRPRN-NH2 [NMU, neuromedin U]
EC50 (NMUR2 WT; NMUR2 WT, mean ± S.E.M., three independent experiments (n=3), SEM, read-out: IP1 accumulation pEC50 ± S.E.M. (converted)): 0.631 nM
EC50 (NMUR2 WT; WT NMUR2, Supplementary Fig. 1, three independent experiments, read-out: pEC50 of NMU (converted)): 3.02 nM
EC50 (NMUR2 A302G): 70.8 nM
EC50 (NMUR2 F284A): 7.08 nM
EC50 (NMUR2 S312A): 2.45 nM
EC50 (NMUR1 WT; NMUR1 WT, mean ± S.E.M., three independent experiments (n=3), SEM, read-out: IP1 accumulation pEC50 ± S.E.M. (converted)): 3.55 nM
EC50 (NMUR1 WT; wild-type (WT) NMUR1, Supplementary Fig. 1, three independent experiments, read-out: pEC50 of NMU (converted)): 4.47 nM
EC50 (NMUR2 R288A): 33.1 nM
EC50 (NMUR1 L59A): 110 nM
EC50 (NMUR1 H331A): 11.5 nM
EC50 (NMUR1 Y346A): 155 nM
EC50 (NMUR1 F334A): 85.1 nM
EC50 (NMUR2 T203A): 0.891 nM
EC50 (NMUR2 E102A): 30.9 nM
EC50 (NMUR2 Y52A): 1 nM
EC50 (NMUR2 F305A): 12.3 nM
EC50 (NMUR2 D287A): 1.15 nM
EC50 (NMUR1 D316A): 10.5 nM
EC50 (NMUR1 M121A): 51.3 nM
EC50 (NMUR2 F126A): 2 nM
EC50 (NMUR2 K122A): 61.7 nM
EC50 (NMUR2 N181A): 2.75 nM
EC50 (NMUR2 Y110A): 186 nM
EC50 (NMUR1 F345A): 1480 nM
EC50 (NMUR1 E120A): 10.7 nM
